In experiment [1] the test system is cardiac endothelial cells. The experiment is described as follows: collagen gel assay, transformation of cardiac endothelial cells to mesenchymal cells. The format is cell-based. The conditions noted are these: Tβ4 at physiological concentrations. As for the experimental part:
Synthetic Tβ4 and an antibody to Tβ4 was provided by RegeneRx Biopharmaceuticals, Inc. (3 Bethesda Metro Center, Suite 700, Bethesda, Md. 20814) and were tested in a collagen gel assay to determine their effects on the Transformation of cardiac endothelial cells to mesenchymal cells. It is well established that development of heart valves and other cardiac tissue are formed by epithelial-mesenchymal transformation and that defects in this process can cause serious cardiovascular malformation and injury during development and throughout life. […] Transformation of atrioventricular endocardium into invasive mesenchyme is an aspect of the formation and maintenance of normal cardiac tissue and in the formation of heart valves.
Synthetic Tβ4 and an antibody to Tβ4 was provided by RegeneRx Biopharmaceuticals, Inc. (3 Bethesda Metro Center, Suite 700, Bethesda, Md. 20814) and were tested in a collagen gel assay to determine their effects on the Transformation of cardiac endothelial cells to mesenchymal cells. It is well established that development of heart valves and other cardiac tissue are formed by epithelial-mesenchymal transformation and that defects in this process can cause serious cardiovascular malformation and injury during development and throughout life. […]

For a further experiment, the system named is ILK. Nature of the experiment: ILK localization, expression and activation (immunocytochemistry, Western). The format is cell-based. As for the experimental part: Because recruitment of ILK to the focal adhesion complex is important for its activation, the effects of thymosin β4 on ILK localization and expression were assayed. […] Because thymosin β4 sequesters the pool of G-actin monomers, the effects on ILK activation were dependent on thymosin β4's role in regulating the balance between polymerized F-actin and monomeric G-actin were tested. F-actin polymerization was inhibited using C3 transferase and also F-actin formation was promoted with an activated Rho, but neither intervention affected the ILK activation observed after treatment of COS1 or C2C 12 cells with thymosin β4.

A further experiment addresses T1, PINCH (Mus musculus, UniProt Q99JW4).
T1 construct: myc or FLAG (co-immunoprecipitation only); made in house; host or cells: T7 phage amplified in E. coli BLT5615 (ELISA); Cos and 10T1/2 cells transfected (co-IP)
The experiment is described as follows: phage display ELISA confirmation and coimmunoprecipitation with PINCH. The format is binding. The source says:
(§1) To investigate the potential mechanisms through which thymosin β4 might be influencing cell migration and survival events, thymosin β4 interacting proteins were searched. The amino-terminus of […] was fused with affi-gel beads resulting in exposure of the carboxy-terminus that allowed identification of previously unknown interacting proteins but prohibited association with actin. An E9.5-12.5 mouse heart T7 phage cDNA library was synthesized and screened by phage display and thymosin β4-interacting clones were enriched and confirmed by ELISA. PINCH, a LIM domain protein, was most consistently isolated in this screen and interacted with thymosin β4 in the absence of actin (ELISA). PINCH and integrin linked kinase (ILK) interact directly with one another and indirectly with the actin cytoskeleton as part of a larger complex involved in cell-extracellular matrix interactions known as the focal adhesion complex. PINCH and ILK are required for cell motility and for cell survival, in part by promoting phosphorylation of the serine-threonine kinase Akt/protein kinase B, a central kinase in survival and growth signaling pathways. […] The PINCH interaction with thymosin β4 mapped to the fourth and fifth LIM domains of PINCH while the amino terminal ankryin domain of ILK was sufficient for thymosin β4 interaction. […]

Experiment [2] addresses T2, integrin linked kinase (ILK) (Homo sapiens, UniProt Q13418).
T2 construct: expressed in transfected cells; host or cells: Cos and 10T1/2 cells
T2 sequence (Q13418 1-452): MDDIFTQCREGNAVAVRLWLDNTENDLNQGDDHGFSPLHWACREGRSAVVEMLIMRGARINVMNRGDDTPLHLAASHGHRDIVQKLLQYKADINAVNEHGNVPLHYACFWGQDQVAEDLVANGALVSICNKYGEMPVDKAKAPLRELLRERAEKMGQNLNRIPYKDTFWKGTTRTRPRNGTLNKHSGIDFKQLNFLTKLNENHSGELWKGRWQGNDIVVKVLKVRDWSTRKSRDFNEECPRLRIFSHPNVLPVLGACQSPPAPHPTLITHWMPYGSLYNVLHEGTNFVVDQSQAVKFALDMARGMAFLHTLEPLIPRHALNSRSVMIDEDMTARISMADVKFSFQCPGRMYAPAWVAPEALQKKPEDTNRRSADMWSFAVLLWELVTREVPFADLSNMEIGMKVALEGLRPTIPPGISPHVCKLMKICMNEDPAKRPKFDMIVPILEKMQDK
The experiment is described as follows: coimmunoprecipitation with ILK. The format is binding.
From the text: as §1

Where [3] appears, read: plasmids transfected in cultured cells.

Consider 1 substance from patent US20090169538A1, “Methods of Treating or Preventing Tissue Damage Caused by Increased Blood Flow” (REGENERX BIOPHARMACEUTICALS, INC., priority 2006, published 2009).

T1 sequence (Q99JW4 whole entry): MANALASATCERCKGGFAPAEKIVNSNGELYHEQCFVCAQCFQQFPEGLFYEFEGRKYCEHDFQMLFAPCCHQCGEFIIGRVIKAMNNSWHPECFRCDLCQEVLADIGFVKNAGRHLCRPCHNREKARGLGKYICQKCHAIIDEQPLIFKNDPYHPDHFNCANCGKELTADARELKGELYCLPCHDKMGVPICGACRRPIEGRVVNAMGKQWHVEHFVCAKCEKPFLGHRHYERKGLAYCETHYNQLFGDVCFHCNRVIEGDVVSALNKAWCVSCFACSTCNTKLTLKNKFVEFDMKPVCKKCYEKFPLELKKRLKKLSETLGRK

As to thymosin β4, in experiment [1], the “transformation of endocardial cells to mesenchymal cells” value is recorded as “markedly enhances”. Further, in the experiment with ILK (C2C12 cells), the “ILK protein levels by Western analysis” value is given as “modest increase” and the “total Akt protein” value is “unchanged”. Further, the “phosphorylation of Akt (serine 473)” value in the experiment on ILK (C2C12 cells, phospho-specific antibody) is “increased phosphorylation”. Besides, the “ILK detection by immunocytochemistry around the cell edges” value in the experiment on ILK (embryonic heart explants or C2C12 myoblasts, synthetic thymosin β4 10 ng/100 ul or expressing plasmid) is listed as “markedly enhanced”. Moreover, in the experiment with PINCH (phage display clones, ELISA), the “interaction with PINCH in the absence of actin (ELISA)” value is “interacted”. The “co-precipitation with PINCH” value with PINCH (setting [3]) was “co-precipitated”. Besides, the “strength of interaction of ILK with thymosin β4” value in experiment [2] (common complex immunoprecipitation) was “weaker than with PINCH”. The “co-precipitation with ILK” value in experiment [2] (setting [3]) is listed as “co-precipitated”.
